± gives the expanded uncertainty stated by the source.
Tests used:
[1] = 298.15 K; 101 kPa; Liquid
[2] = refractive index (Na D-line) (dimensionless); conditions: 298.15 K; 101.33 kPa; Liquid; Standard Abbe refractometry
[3] = xn = mol fraction of the nth substance listed; conditions: 298.15 K, 101 kPa, Liquid
[4] = refractive index (Na D-line) (dimensionless); xn = mol fraction of the nth substance listed; conditions: 298.15 K, 101 kPa, Liquid, Standard Abbe refractometry

CC(C)CCCC(C)CCCC(C)CCCCC(C)CCCC(C)CCCC(C)C (stereo not drawn) [2,6,10,15,19,23-hexamethyltetracosane]
Conditions | mass density [kg/m3] | refractive index | viscosity [mPa·s]
[1] | 805.4 ± 1.4 | – | 31.12 ± 1.1
[2] | – | 1.4474 ± 0.0058 | –

CC(C)CCCC(C)CCCC(C)CCCCC(C)CCCC(C)CCCC(C)C (stereo not drawn) [2,6,10,15,19,23-hexamethyltetracosane] + CCCCCC
Conditions | mass density, [3] [kg/m3] | refractive index, [4] | viscosity, [3] [mPa·s]
x1 = 0.0144 | 663.9 ± 1.1 | 1.3798 ± 0.0056 | 0.405 ± 0.2
x1 = 0.0481 | 682.1 ± 1.1 | 1.3904 ± 0.0056 | 0.593 ± 0.2
x1 = 0.0748 | 694.2 ± 1.2 | 1.3976 ± 0.0056 | 0.727 ± 0.2
x1 = 0.1218 | 711.9 ± 1.2 | 1.4068 ± 0.0057 | 0.971 ± 0.2
x1 = 0.1779 | 728.5 ± 1.2 | 1.4153 ± 0.0057 | 1.413 ± 0.21
x1 = 0.2858 | 751.4 ± 1.3 | 1.4244 ± 0.0057 | 2.923 ± 0.23
x1 = 0.3695 | 764 ± 1.3 | 1.431 ± 0.0058 | 4.685 ± 0.27
x1 = 0.4258 | 770.7 ± 1.3 | 1.4349 ± 0.0058 | 6.068 ± 0.3
x1 = 0.5661 | 783.6 ± 1.3 | 1.4435 ± 0.0058 | 10.15 ± 0.4
x1 = 0.718 | 793.5 ± 1.4 | 1.4468 ± 0.0058 | 15.59 ± 0.58
x1 = 0.807 | 798 ± 1.4 | 1.4468 ± 0.0058 | 19.6 ± 0.71
x1 = 0.8939 | 801.7 ± 1.4 | 1.447 ± 0.0058 | 24.32 ± 0.87
x1 = 0.9593 | 804.1 ± 1.4 | 1.447 ± 0.0058 | 28.41 ± 1
x1 = 0.9943 | 805.2 ± 1.4 | 1.4472 ± 0.0058 | 30.74 ± 1.1
x1 = 1 | 805.4 ± 1.4 | 1.4474 ± 0.0058 | 31.12 ± 1.1

C1CCCCC1 [cyclohexane]
Conditions | mass density [kg/m3] | refractive index | viscosity [mPa·s]
[1] | 773.7 ± 1.3 | – | 0.898 ± 0.045
[2] | – | 1.4235 ± 0.0057 | –

C1CCCCC1 [cyclohexane] + CCCCCC
[3]
Conditions | mass density [kg/m3] | viscosity [mPa·s]
x1 = 0.0357 | 658.2 ± 1.1 | 0.295 ± 0.019
x1 = 0.1127 | 665.9 ± 1.1 | 0.301 ± 0.019
x1 = 0.2 | 674.9 ± 1.1 | 0.312 ± 0.02
x1 = 0.3288 | 688.6 ± 1.2 | 0.342 ± 0.021
x1 = 0.462 | 703.5 ± 1.2 | 0.405 ± 0.024
x1 = 0.5424 | 712.9 ± 1.2 | 0.451 ± 0.026
x1 = 0.577 | 717 ± 1.2 | 0.472 ± 0.027
x1 = 0.6703 | 728.4 ± 1.2 | 0.539 ± 0.03
x1 = 0.7543 | 739.2 ± 1.3 | 0.603 ± 0.032
x1 = 0.8703 | 754.9 ± 1.3 | 0.71 ± 0.037
x1 = 0.9451 | 765.5 ± 1.3 | 0.794 ± 0.041
x1 = 0.974 | 769.7 ± 1.3 | 0.842 ± 0.043
x1 = 0.9935 | 772.7 ± 1.3 | 0.894 ± 0.045
x1 = 1 | 773.7 ± 1.3 | 0.898 ± 0.045

CCCCCCCCCC [decane]
Conditions | mass density [kg/m3] | refractive index | viscosity [mPa·s]
[1] | 726.2 ± 1.2 | – | 0.859 ± 0.043
[2] | – | 1.41 ± 0.0057 | –

CCCCCCCCCC [decane] + CCCCCC
Conditions | mass density, [3] [kg/m3] | refractive index, [4] | viscosity, [3] [mPa·s]
x1 = 0.021 | 657.1 ± 1.1 | 1.3755 ± 0.0055 | 0.296 ± 0.019
x1 = 0.0659 | 662 ± 1.1 | 1.378 ± 0.0056 | 0.307 ± 0.02
x1 = 0.1584 | 671.3 ± 1.1 | 1.382 ± 0.0056 | 0.337 ± 0.021
x1 = 0.233 | 678.1 ± 1.1 | 1.3854 ± 0.0056 | 0.355 ± 0.022
x1 = 0.2761 | 681.8 ± 1.1 | 1.3871 ± 0.0056 | 0.377 ± 0.023
x1 = 0.3493 | 687.8 ± 1.2 | 1.39 ± 0.0056 | 0.417 ± 0.024
x1 = 0.4506 | 695.3 ± 1.2 | 1.394 ± 0.0056 | 0.471 ± 0.027
x1 = 0.541 | 701.4 ± 1.2 | 1.3973 ± 0.0056 | 0.518 ± 0.029
x1 = 0.6382 | 707.4 ± 1.2 | 1.4004 ± 0.0056 | 0.567 ± 0.031
x1 = 0.7836 | 715.6 ± 1.2 | 1.4045 ± 0.0057 | 0.657 ± 0.035
x1 = 0.9095 | 722 ± 1.2 | 1.408 ± 0.0057 | 0.772 ± 0.04
x1 = 0.9654 | 724.7 ± 1.2 | 1.4095 ± 0.0057 | 0.823 ± 0.042
x1 = 0.9936 | 726 ± 1.2 | 1.4099 ± 0.0057 | 0.855 ± 0.043
x1 = 1 | 726.2 ± 1.2 | 1.41 ± 0.0057 | 0.859 ± 0.043

CCCCCCCCCCCCCCCC [hexadecane]
Conditions | mass density [kg/m3] | refractive index | viscosity [mPa·s]
[1] | 770.6 ± 1.3 | – | 3.039 ± 0.14
[2] | – | 1.434 ± 0.0058 | –

CCCCCCCCCCCCCCCC [hexadecane] + CCCCCC
Conditions | mass density, [3] [kg/m3] | refractive index, [4] | viscosity, [3] [mPa·s]
x1 = 0.0284 | 662.1 ± 1.1 | 1.3784 ± 0.0056 | 0.322 ± 0.02
x1 = 0.0757 | 673.3 ± 1.1 | 1.386 ± 0.0056 | 0.382 ± 0.023
x1 = 0.1349 | 685.7 ± 1.2 | 1.395 ± 0.0056 | 0.473 ± 0.027
x1 = 0.1842 | 694.9 ± 1.2 | 1.4006 ± 0.0056 | 0.559 ± 0.031
x1 = 0.266 | 708.4 ± 1.2 | 1.4087 ± 0.0057 | 0.703 ± 0.037
x1 = 0.3427 | 719.1 ± 1.2 | 1.4147 ± 0.0057 | 0.864 ± 0.044
x1 = 0.4864 | 735.5 ± 1.2 | 1.4262 ± 0.0057 | 1.205 ± 0.058
x1 = 0.503 | 737.1 ± 1.3 | 1.4266 ± 0.0057 | 1.24 ± 0.06
x1 = 0.6779 | 751.8 ± 1.3 | 1.4318 ± 0.0058 | 1.735 ± 0.081
x1 = 0.7546 | 757 ± 1.3 | 1.432 ± 0.0058 | 2.022 ± 0.093
x1 = 0.8927 | 765.1 ± 1.3 | 1.4322 ± 0.0058 | 2.562 ± 0.12
x1 = 0.9468 | 768 ± 1.3 | 1.4332 ± 0.0058 | 2.805 ± 0.13
x1 = 0.9902 | 770.1 ± 1.3 | 1.434 ± 0.0058 | 3.012 ± 0.14
x1 = 1 | 770.6 ± 1.3 | 1.434 ± 0.0058 | 3.039 ± 0.14

CCCCCC [hexane]
Conditions | mass density [kg/m3] | refractive index | viscosity [mPa·s]
[1] | 654.8 ± 1.1 | – | 0.294 ± 0.019
[2] | – | 1.3745 ± 0.0055 | –

CCCCCC [hexane] + C1CCCCC1
[3], x2 = 0
Conditions | mass density [kg/m3] | viscosity [mPa·s]
– | 654.8 ± 1.1 | 0.294 ± 0.019

CCCCCC [hexane] + CC(C)CCCC(C)CCCC(C)CCCCC(C)CCCC(C)CCCC(C)C
x2 = 0
Conditions | mass density [kg/m3] | refractive index | viscosity [mPa·s]
[3] | 654.8 ± 1.1 | – | 0.294
[4] | – | 1.3745 ± 0.0055 | –

CCCCCC [hexane] + CCCCCCCCCC
x2 = 0
Conditions | mass density [kg/m3] | refractive index | viscosity [mPa·s]
[3] | 654.8 ± 1.1 | – | 0.294 ± 0.019
[4] | – | 1.3745 ± 0.0055 | –

CCCCCC [hexane] + CCCCCCCCCCCCCCCC
x2 = 0
Conditions | mass density [kg/m3] | refractive index | viscosity [mPa·s]
[3] | 654.8 ± 1.1 | – | 0.294 ± 0.019
[4] | – | 1.3745 ± 0.0055 | –

Reference: the NIST ThermoML archive (doi:10.1007/s10765-005-5572-8)
